Laboratory results: US9156831B2, “Chemical compounds” (ASTRAZENECA AB, priority 2013, dated 2015)

Legend:
H2286 = assay: Cell proliferation assay (MTS)
Protocol: (§1) The sensitivity of a panel of human cancer cell lines to the effects of compounds was determined in a standard proliferation assay.
(§2) Cells were plated in 96 well plates at densities of 1000-6000 cells per well in RPMI media containing 10% FBS. After incubation at 37° C. for 16 hours, various concentrations of compound were added to the assay plates. After incubation for an additional 72 h, the viable cells were determined by the addition of MTS reagent (Promega #3582) to each well for 2 h. […] The formazan product was then quantitated by absorbance at 490 nm, as an indicator of the relative number of live cells. In order to determine the GI50 (concentration at which growth of cells was inhibited by 50%) the relative number of cells present at the time of drug addition was determined by comparison with the MTS readout before the drug was added, and this value was subtracted from the 72 hr value of untreated cells as a measure of cell growth during the assay.

L363 = assay: Cell proliferation assay (MTS); type: cell-based, human
Protocol: as §1
(§3) Cells were plated in 96 well plates at densities of 1000-6000 cells per well in RPMI media containing 10% FBS. After incubation at 37° C. for 16 hours, various concentrations of compound were added to the assay plates. After incubation for an additional 72 h, the viable cells were determined by the addition of MTS reagent (Promega #3582) to each well for 2 h. MTS is a tetrazolium salt that is bioreduced by metabolically active cells in the presence of an electron coupling reagent to formazan. The formazan product was then quantitated by absorbance at 490 nm, as an indicator of the relative number of live cells. In order to determine the GI50 (concentration at which growth of cells was inhibited by 50%) the relative number of cells present at the time of drug addition was determined by comparison with the MTS readout before the drug was added, and this value was subtracted from the 72 hr value of untreated cells as a measure of cell growth during the assay.

IM9 = assay: Cell proliferation assay (MTS); type: cell-based, human
Protocol: (§4) The sensitivity of a panel of human cancer cell lines to the effects of compounds was determined in a standard proliferation assay. Cell lines were sourced through the AstraZeneca Cell Bank.
as §3

MDAMB453 = assay: Cell proliferation assay (MTS); type: cell-based, human
Protocol: as §4, §3

BT549 = assay: Cell proliferation assay (MTS); type: cell-based, human
Protocol: as §1, §2

CALU1 = assay: Cell proliferation assay (MTS); type: cell-based, human
Protocol: as §1, §3

SW780 = assay: Cell proliferation assay (MTS); type: cell-based, human
Protocol: as §1, §3

COLO320DM = assay: Cell proliferation assay (MTS)
Protocol: as §4, §3

MHCC97L = assay: Cell proliferation assay (MTS); type: cell-based, human
Protocol: as §4, §3

JIMT1 = assay: Cell proliferation assay (MTS); type: cell-based, human
Protocol: as §1, §3

HCC1187 = assay: Cell proliferation assay (MTS); type: cell-based, human
Protocol: as §4, §3

PANC89 = assay: Cell proliferation assay (MTS); type: cell-based, human
Protocol: as §1, §3

MCF7 xenograft = assay: Tumour growth inhibition, MCF7 xenograft model; type: in vivo, mouse; settings: Example 3 alone 25 mg/kg twice daily every day; FIG. 12
Protocol: MCF7 is an estrogen receptor positive breast tumour cell line carrying a mutation in the PIKC3CA gene (E545K). […] SCID mice (AZ UK) were transplanted subcutaneously (s.c.) with human breast adenocarcinoma cell line MCF7 (ICRF London) to determine anti-tumour activity of PI3 kinase inhibitors. Mice were implanted with a 0.5 mg 21 day oestrogen pellet (Innovative Research of America) 24 hours prior to cell implantation. 5×10^6 cells in 50% matrigel (BD Bioscience) were injected s.c. on the left flank of the animals.
Animals were randomised into groups of 10-15 when tumours reached a volume of ˜200-300 mm^3 and treatment commenced. Animals were dosed for 3-4 weeks by peroral route, with compound in a suitable vehicle at defined doses and schedules. Tumours were measured two-three times weekly by caliper and volume of tumours calculated using elliptical formula (pi/6×width×width×length).

SNU601 = assay: Cell proliferation assay (MTS); type: cell-based, human
Protocol: as §4, §3

MOLP8 = assay: Cell proliferation assay (MTS); type: cell-based, human
Protocol: as §4, §3

SNU761 = assay: Cell proliferation assay (MTS); type: cell-based, human
Protocol: as §1, §3

MGHU3 = assay: Cell proliferation assay (MTS); type: cell-based, human
Protocol: as §4, §3

MDAMB468 = assay: Cell proliferation assay (MTS); type: cell-based, human
Protocol: as §1, §2

A549 = assay: Cell proliferation assay (MTS); type: cell-based, human
Protocol: as §1, §3

GTL16 = assay: Cell proliferation assay (MTS); type: cell-based, human
Protocol: as §1, §2

SCABER = assay: Cell proliferation assay (MTS); type: cell-based, human
Protocol: as §4, §3

HX147 = assay: Cell proliferation assay (MTS); type: cell-based, human
Protocol: as §4, §3

OVCAR3 = assay: Cell proliferation assay (MTS); type: cell-based, human
Protocol: as §1, §3

H358 = assay: Cell proliferation assay (MTS); type: cell-based, human
Protocol: as §1, §2

IM95M = assay: Cell proliferation assay (MTS); type: cell-based, human
Protocol: as §4, §3

MOLM13 = assay: Cell proliferation assay (MTS); type: cell-based, human
Protocol: as §1, §3

MEC1 = assay: Cell proliferation assay (MTS); type: cell-based, human
Protocol: as §1, §3

H1437 = assay: Cell proliferation assay (MTS); type: cell-based, human
Protocol: as §1, §3

SNU484 = assay: Cell proliferation assay (MTS); type: cell-based, human
Protocol: as §1, §3

PANC0327 = assay: Cell proliferation assay (MTS); type: cell-based, human
Protocol: as §4, §3

DMS114 = assay: Cell proliferation assay (MTS); type: cell-based, human
Protocol: as §4, §3

BEL7404 = assay: Cell proliferation assay (MTS); type: cell-based, human
Protocol: as §4, §3

5637 = assay: Cell proliferation assay (MTS); type: cell-based, human
Protocol: as §1, §3

SNU449 = assay: Cell proliferation assay (MTS); type: cell-based, human
Protocol: as §1, §2

22RV1 = assay: Cell proliferation assay (MTS); type: cell-based, human
Protocol: as §1, §3

H2126 = assay: Cell proliferation assay (MTS); type: cell-based, human
Protocol: as §4, §3

HCT8 = assay: Cell proliferation assay (MTS); type: cell-based, human
Protocol: as §4, §3

H2085 = assay: Cell proliferation assay (MTS); type: cell-based, human
Protocol: as §1, §3

[1] = Homo sapiens, Bladder, PIK3CA WT

Structure (SMILES): CCn1nc(C2CCN(C(=O)CCO)CC2)nc1-c1cnc(N)c(-c2nnc(C(C)(C)C)o2)n1 [Example 3, 1-(4-(5-(5-amino-6-(5-tert-butyl-1,3,4-oxadiazol-2-yl)pyrazin-2-yl)-1-ethyl-1H-1,2,4-triazol-3-yl)piperidin-1-yl)-3-hydroxypropan-1-one]
- Category (H2286; H2286): Resistant (resistant (GI50>1.0 μM))
- GI50 (H2286; Homo sapiens, NCI-H2286): 20 µM
- Category (L363): Sensitive (sensitive (GI50<=1.0 μM))
- GI50 (L363; Homo sapiens, L-363, Blood/lymph, PIK3CA MUT): 0.681 µM
- Category (IM9): Resistant (resistant (GI50>1.0 μM))
- GI50 (IM9; Homo sapiens, IM-9, Blood/lymph, PIK3CA WT): 30 µM
- Category (MDAMB453): Sensitive (sensitive (GI50<=1.0 μM))
- GI50 (MDAMB453; Homo sapiens, MDA-MB-453, Breast, PIK3CA MUT): 0.456 µM
- Category (BT549): Resistant (resistant (GI50>1.0 μM))
- GI50 (BT549; Homo sapiens, BT-549, Breast, PIK3CA WT): 17.4 µM
- Category (CALU1): Resistant (resistant (GI50>1.0 μM))
- GI50 (CALU1; Homo sapiens, Calu-1, Lung, PIK3CA WT): 16 µM
- Category (SW780): Resistant (resistant (GI50>1.0 μM))
- GI50 (SW780; [1]): 19.2 µM
- Category (COLO320DM; COLO320DM): Resistant (resistant (GI50>1.0 μM))
- GI50 (COLO320DM; Homo sapiens, COLO 320DM): 2.51 µM
- Category (MHCC97L): Resistant (resistant (GI50>1.0 μM))
- GI50 (MHCC97L; Homo sapiens, Liver, PIK3CA WT): 3.35 µM
- Category (JIMT1): Resistant (resistant (GI50>1.0 μM))
- GI50 (JIMT1; Homo sapiens, JIMT-1, Breast, PIK3CA MUT): 1.46 µM
- Category (HCC1187): Sensitive (sensitive (GI50<=1.0 μM))
- GI50 (HCC1187; Homo sapiens, Breast, PIK3CA WT): 0.509 µM
- Category (PANC89): Resistant (resistant (GI50>1.0 μM))
- GI50 (PANC89; Homo sapiens, Pancreas, PIK3CA WT): 1.62 µM
- tumour growth (MCF7 xenograft): caused some tumour regression
- Category (SNU601): Sensitive (sensitive (GI50<=1.0 μM))
- GI50 (SNU601; Homo sapiens, SNU-601, Stomach, PIK3CA MUT): 0.506 µM
- Category (MOLP8): Resistant (resistant (GI50>1.0 μM))
- GI50 (MOLP8; Homo sapiens, MOLP-8, Blood/lymph, PIK3CA WT): 3.29 µM
- Category (SNU761): Resistant (resistant (GI50>1.0 μM))
- GI50 (SNU761; Homo sapiens, Liver, PIK3CA WT): 18.5 µM
- Category (MGHU3): Resistant (resistant (GI50>1.0 μM))
- GI50 (MGHU3; [1]): 11.5 µM
- Category (MDAMB468): Resistant (resistant (GI50>1.0 μM))
- GI50 (MDAMB468; Homo sapiens, MDA-MB-468, Breast, PIK3CA WT): 9.33 µM
- Category (A549): Resistant (resistant (GI50>1.0 μM))
- GI50 (A549; Homo sapiens, Lung, PIK3CA WT): 10.2 µM
- Category (GTL16): Resistant (resistant (GI50>1.0 μM))
- GI50 (GTL16; Homo sapiens, GTL 16, Stomach, PIK3CA WT): 17.4 µM
- Category (SCABER): Resistant (resistant (GI50>1.0 μM))
- GI50 (SCABER; [1]): 12.4 µM
- Category (HX147): Resistant (resistant (GI50>1.0 μM))
- GI50 (HX147; Homo sapiens, Lung, PIK3CA WT): 30 µM
- Category (OVCAR3): Resistant (resistant (GI50>1.0 μM))
- GI50 (OVCAR3; Homo sapiens, OVCAR-3, Ovary, PIK3CA WT): 1.18 µM
- Category (H358): Resistant (resistant (GI50>1.0 μM))
- GI50 (H358; Homo sapiens, NCI-H358, Lung, PIK3CA WT): 4.64 µM
- Category (IM95M): Sensitive (sensitive (GI50<=1.0 μM))
- GI50 (IM95M; Homo sapiens, Stomach, PIK3CA MUT): 0.436 µM
- Category (MOLM13): Resistant (resistant (GI50>1.0 μM))
- GI50 (MOLM13; Homo sapiens, MOLM-13, Blood/lymph, PIK3CA WT): 1.22 µM
- Category (MEC1): Resistant (resistant (GI50>1.0 μM))
- GI50 (MEC1; Homo sapiens, Blood/lymph, PIK3CA WT): 30 µM
- Category (H1437): Resistant (resistant (GI50>1.0 μM))
- GI50 (H1437; Homo sapiens, NCI-H1437, Lung, PIK3CA WT): 30 µM
- Category (SNU484): Resistant (resistant (GI50>1.0 μM))
- GI50 (SNU484; Homo sapiens, SNU-484, Stomach, PIK3CA WT): 1.79 µM
- Category (PANC0327): Resistant (resistant (GI50>1.0 μM))
- GI50 (PANC0327; Homo sapiens, PANC-03-27, Pancreas, PIK3CA WT): 8.03 µM
- Category (DMS114): Resistant (resistant (GI50>1.0 μM))
- GI50 (DMS114; Homo sapiens, DMS-114, Lung, PIK3CA WT): 3.29 µM
- Category (BEL7404): Resistant (resistant (GI50>1.0 μM))
- GI50 (BEL7404; Homo sapiens, BEL-7404, Liver, PIK3CA WT): 14.9 µM
- Category 5637: Resistant (resistant (GI50>1.0 μM))
- GI50 5637; [1]: 9.63 µM
- Category (SNU449): Resistant (resistant (GI50>1.0 μM))
- GI50 (SNU449; Homo sapiens, SNU-449, Liver, PIK3CA WT): 5.41 µM
- Category (22RV1): Resistant (resistant (GI50>1.0 μM))
- GI50 (22RV1; Homo sapiens, Prostate, PIK3CA MUT): 4.14 µM
- Category (H2126): Resistant (resistant (GI50>1.0 μM))
- GI50 (H2126; Homo sapiens, NCI-H2126, Lung, PIK3CA WT): 12.9 µM
- Category (HCT8): Resistant (resistant (GI50>1.0 μM))
- GI50 (HCT8; Homo sapiens, HCT-8, Colon, PIK3CA MUT): 2.51 µM
- Category (H2085): Resistant (resistant (GI50>1.0 μM))
- GI50 (H2085; Homo sapiens, Lung, PIK3CA WT): 1.83 µM
